Source: PMC9735573 (International Journal of Molecular Sciences, 2022)
pEC50: −log10 of the molar value. Where two headings read alike, the source gives them in different places.

How the values were obtained:
[1] = mouse, in vivo, ip, 50 mg/kg
in vivo [2] = conditions: female, BALB/c, mouse, ip, 50 mg/kg
[3] = tested on: Shiga-like toxin-1 (Stx-1), HeLa cells; conditions: cited from earlier work
[4] = mouse, in vivo, 2 mg/kg
Aqueous solubility = format: physicochemical
[5] = mouse
[6] = tested on: Shiga-like toxin-1 (Stx-1), HeLa cells; assay: cells; format: cell-based, human; conditions: for pEC50: Homo sapiens, HeLa, read-out: EC50 (Stx-1 intoxication assay)
[7] = human
in vivo [8] = conditions: female, BALB/c, mouse, 2 mg/kg; for half-life: Thalf (elimination half-life)
[9] = Characterisation and stability of Retro-2.1 formulation in PLGA–PEG–PLGA; format: physicochemical
Description: The thin-film rehydration technique was also used to formulate Retro-2.1 in PLGA–PEG–PLGA, using acetone as a dissolution solvent and saline as a rehydration vehicle. As previously described, the polymer was prepared as a 20% (w/v) solution in saline. This solution was able to stably dissolve 3.25 mg/mL of Retro-2.1, with an encapsulation yield of 98% and a drug loading of 1.9%. […] Of note, above 42 °C, the polymer aggregated and separated from water, which is in accordance with other reported polymers with similar structures. The formulation was stable for at least 13 days when stored at 4 °C. However, like the formulation in PEG–PLA, the formulation in PLGA–PEG–PLGA lost 20% of its payload upon storage at 25 °C for 24 h (Figure S10). Subsequent formulations were therefore freshly prepared and stored at 4 °C before use.
(§1) Dynamic light scattering experiments were performed using a Vasco Flex particle size analyzer equipped with a 450 nm laser. Data were recorded at 20 °C using a refractive index of 1.331 and a solvent viscosity of 0.982 cP. For each sample, 10 acquisitions were realized using a noise limit of 1% and 200 channels with a time interval of 1 µs. All samples were analyzed at a concentration of 10 mg/mL in 4 mL glass vials (Lab File, Wheaton) unless otherwise noted.
In a round-bottom flask, Retro-2.1 (59.8 mg, 137 µmol) and PLGA–PEG–PLGA (3.00 g, 545 µmol) were dissolved in acetone (15 mL). The solvent was removed under reduced pressure to yield a translucent pale-yellow polymeric film, which was further dried under vacuum for 4 h. The film was rehydrated with saline (15 mL) at room temperature, and 2 M NaOH solution in water was added to reach a pH of 7. The solution was sterile-filtered on a 0.2 µm membrane (Millex®) into 6 mL sterile vials and stored at 4 °C until further use. The Retro-2.1 concentration was determined using HPLC after dilution of the solution in MeCN. Drug loadings and encapsulation efficiencies were calculated, as described before.
(§2) A sample of the formulation was placed in a 500 µL Eppendorf tube and stored at −20 °C, 4 °C or room temperature (20–25 °C). At each timepoint, the sample was centrifuged (15,000× g, 5 min, 4 °C) and the Retro-2.1 concentration in the supernatant was determined using HPLC.

[10] = Pharmacokinetic study in mice, Retro-2.1 in PLGA–PEG–PLGA hydrogel, 25 mg/kg SC; format: in vivo; conditions: for half-life: flip-flop pharmacokinetics, read-out: Thalf (apparent elimination half-life) (converted); for Cmax: mice plasma
[11] = Characterisation and stability of Retro-2.1 formulation in PEG–PLA micelles; format: physicochemical
Description: Retro-2.1 was encapsulated in PEG–PLA micelles using the thin-film hydration method, also known as the solvent casting method. This method allowed us to dissolve 4.55 mg/mL of the drug in 26.4 mg/mL of PEG–PLA solution, with an encapsulation yield of 91% and a drug loading of 15%, as determined with HPLC analysis using a calibration curve (Figure S1). […] As previously described, including for Genexol®-PM, these micelles are likely to be spherical. Although the zeta potential of these micelles was not determined in this study, PEG–PLA micelles are widely described to have a neutral to slightly negatively charged surface. […] However, about 35% of the drug load precipitated upon storage at room temperature for 24 h (Figure S3). Every subsequent formulation was therefore stored at −20 °C and thawed at 4 °C before use.
as §1
In a round-bottom flask, Retro-2.1 (92 mg, 211 µmol) and PEG–PLA (528 mg, 132 µmol) were dissolved in acetone (20 mL). The solvent was removed under reduced pressure to yield a transparent pale-yellow polymeric film, which was rehydrated with saline (15 mL) at 40 °C. Next, 2M NaOH solution in water was added to reach a pH of 7. The volume was adjusted to 20 mL with saline, and the solution was sterile-filtered on a 0.2 µm membrane (Millex®, Duluth, GA, USA) into several 6 mL sterile vials and stored at −20 °C until further use. The Retro-2.1 concentration was determined using HPLC after dilution of the solution in MeOH. Drug loadings and encapsulation efficiencies were calculated using the following formula:(1) encapsulation yield=100*mdrug dissolved/mdrug addeddrug loading=100* mdrug/mdrug+mpolymer
as §2

[12] = SC injection of 25 mg/kg of Retro-2.1 in PLGA–PEG–PLGA, mice
[13] = female, BALB/c, mouse, plasma, SC injection of 25 mg/kg of Retro-2.1 in PLGA–PEG–PLGA, mice
[14] = female, BALB/c, mouse, SC injection of 25 mg/kg of Retro-2.1 in PLGA–PEG–PLGA

Structure (SMILES): Cc1nc(-c2ccc(C3N(C)c4ccc(F)cc4C(=O)N3c3ccccc3)s2)cs1 (centres unmarked) [Retro-2.1, 6-fluoro-1-methyl-2-(5-(2-methylthiazol-4-yl)thiophen-2-yl)-3-phenyl-2,3-dihydroquinazolin-4(1H)-1]
- AUCextra ([1]; female, BALB/c): 0.1%
- Thalf ([1]; female, BALB/c): 3.3 h
- VSS ([1]; female, BALB/c): 2.8 L/kg
- plasma detectability 24 h after injection [1]: barely detectable
- signs of pain or acute toxicity [1]: no apparent sign of pain or acute toxicity was observed
- AUC (in vivo [2]): 18500 ng·h/mL
- CL/F (in vivo [2]): 45 mL/min/kg
- Cmax (in vivo [2]): 50.6 µg/mL
- MRT (in vivo [2]): 1 h
- Tmax (in vivo [2]): 0.0833 h
- times more potent than Retro-2 [3]: about 100 times
- pEC50 ([3]; read-out: EC50 against the Shiga toxin): 6.99
- AUCextra ([4]; female, BALB/c, ip): 2.1%
- Thalf (elimination half-life) ([4]; female, BALB/c, ip): 6.7 h
- VSS ([4]; female, BALB/c, ip): 26.3 L/kg
- plasmatic concentration 7 h following injection ([4]; female, BALB/c, ip): 21 nM
- AUCextra ([4]; female, BALB/c, iv): 2.3%
- Thalf (elimination half-life) ([4]; female, BALB/c, iv): 5 h
- plasmatic concentration 7 h following injection ([4]; female, BALB/c, iv): 6 nM
- signs of pain or acute toxicity [4]: no sign of pain or acute toxicity was observed
- solubility (Aqueous solubility): < 1 µg/mL
- Non-NADPH degradation [5]: < 5%
- Clint ([5]; microsomes): 460 μL.min^−1.mg of protein^−1
- pEC50 [6]: 7.05
- Non-NADPH degradation [7]: < 5%
- Clint ([7]; microsomes): 27.8 μL.min^−1.mg of protein^−1
- Metabolic stability at t = 45 min (remaining) ([7]; microsomes, 0.75 h): 27.4%
- AUC (in vivo [8]; ip): 322 ng·h/mL
- CL/F (in vivo [8]; ip): 103 mL/min/kg
- Cmax (in vivo [8]; ip): 0.304 µg/mL
- MRT (in vivo [8]; ip): 4.2 h
- Tmax (in vivo [8]; ip): 5 min
- half-life (in vivo [8]; ip): 5 h
- AUC (in vivo [8]; iv): 213 ng·h/mL
- Cmax (in vivo [8]; iv): 0.328 µg/mL
- MRT (in vivo [8]; iv): 2.9 h
- Tmax (in vivo [8]; iv): 5 min
- Vd (in vivo [8]; iv): 27.5 L/kg
- clearance (in vivo [8]; iv): 157 mL/min/kg
- half-life (in vivo [8]; iv): 6.7 h
- drug concentration stably dissolved in polymer solution ([9]; 20% (w/v) PLGA–PEG–PLGA in saline): 3250 µg/mL
- drug loading ([9]; PLGA–PEG–PLGA): 1.9%
- encapsulation yield ([9]; PLGA–PEG–PLGA): 98%
- formulation stable for ([9]; PLGA–PEG–PLGA formulation stored at 4 °C): at least 13 days
- payload lost upon storage ([9]; PLGA–PEG–PLGA formulation, 25 °C, 24 h): 20%
- temperature at which formulation starts solidifying ([9]; PLGA–PEG–PLGA formulation, inverted vial method): 31 °C
- micelle mean diameter (DLS) ([9]; Retro-2.1-loaded PLGA–PEG–PLGA micelles): 24.1 nm
- AUCextra [10, 12]: 17%
- VSS [10, 12]: 456 L/kg
- AUC [10, 13]: 1420 ng·h/mL
- CL/F [10, 13]: 294 mL/min/kg
- MRT [10, 13]: 26 h
- Tmax [10, 13]: 2 h
- half-life [10, 13]: 19 h
- Cmax [10, 14]: 0.0752 µg/mL
- duration of sustained release ([10]; mice, 25 mg/kg SC in PLGA–PEG–PLGA): at least 48 h
- signs of pain or acute toxicity ([10]; mice, 25 mg/kg SC in PLGA–PEG–PLGA, over 48 h): no sign of pain or acute toxicity was observed
- formulation stable for ([11]; PEG–PLA formulation stored at 4 °C and −20 °C): at least 48 h
- drug load precipitated upon storage ([11]; PEG–PLA formulation, room temperature, 24 h): about 35%
- drug loading ([11]; PEG–PLA micelles): 15%
- encapsulation yield ([11]; PEG–PLA micelles): 91%
- micelle mean diameter (DLS) ([11]; Retro-2.1-loaded PEG–PLA micelles): 22.5 nm
- drug concentration dissolved in polymer solution ([11]; in 26.4 mg/mL of PEG–PLA solution, thin-film hydration, HPLC): 4550 µg/mL

Structure (SMILES): CN1c2ccc(F)cc2C(=O)N(c2ccccc2)C1c1ccc(-c2csc(CO)n2)s1 (centres unmarked) [compound 3]
- AUCextra ([1]; female, BALB/c): 0.4%
- Thalf ([1]; female, BALB/c): 3.7 h
- AUC (in vivo [2]): 6700 ng·h/mL
- Cmax (in vivo [2]): 2.76 µg/mL
- MRT (in vivo [2]): 3.43 h
- Tmax (in vivo [2]): 0.25 h
- fold less potent than Retro-2.1 [6]: 80 fold
- pEC50 [6]: 5.13
- AUCextra [10, 12]: 12%
- AUC [10, 13]: 621 ng·h/mL
- MRT [10, 13]: 21 h
- Tmax [10, 13]: 2 h
- half-life [10, 13]: 15 h
- Cmax [10, 14]: 0.0393 µg/mL
